Legend:
[1] = biological target: T1, xanthine oxidase (XOD) (Bos taurus, UniProt P80457); test: spectrophotometric uric acid formation assay at […] nm; reversibility plots; assay type: biochemical
T1 construct: gene XDH

[2] = biological target: T1, xanthine oxidase (XOD); test: spectrophotometric uric acid formation assay at […] nm, % inhibition at […]; assay type: biochemical; details: read-out: % inhibition at 100 μg/mL

T1 sequence (P80457 2-1332): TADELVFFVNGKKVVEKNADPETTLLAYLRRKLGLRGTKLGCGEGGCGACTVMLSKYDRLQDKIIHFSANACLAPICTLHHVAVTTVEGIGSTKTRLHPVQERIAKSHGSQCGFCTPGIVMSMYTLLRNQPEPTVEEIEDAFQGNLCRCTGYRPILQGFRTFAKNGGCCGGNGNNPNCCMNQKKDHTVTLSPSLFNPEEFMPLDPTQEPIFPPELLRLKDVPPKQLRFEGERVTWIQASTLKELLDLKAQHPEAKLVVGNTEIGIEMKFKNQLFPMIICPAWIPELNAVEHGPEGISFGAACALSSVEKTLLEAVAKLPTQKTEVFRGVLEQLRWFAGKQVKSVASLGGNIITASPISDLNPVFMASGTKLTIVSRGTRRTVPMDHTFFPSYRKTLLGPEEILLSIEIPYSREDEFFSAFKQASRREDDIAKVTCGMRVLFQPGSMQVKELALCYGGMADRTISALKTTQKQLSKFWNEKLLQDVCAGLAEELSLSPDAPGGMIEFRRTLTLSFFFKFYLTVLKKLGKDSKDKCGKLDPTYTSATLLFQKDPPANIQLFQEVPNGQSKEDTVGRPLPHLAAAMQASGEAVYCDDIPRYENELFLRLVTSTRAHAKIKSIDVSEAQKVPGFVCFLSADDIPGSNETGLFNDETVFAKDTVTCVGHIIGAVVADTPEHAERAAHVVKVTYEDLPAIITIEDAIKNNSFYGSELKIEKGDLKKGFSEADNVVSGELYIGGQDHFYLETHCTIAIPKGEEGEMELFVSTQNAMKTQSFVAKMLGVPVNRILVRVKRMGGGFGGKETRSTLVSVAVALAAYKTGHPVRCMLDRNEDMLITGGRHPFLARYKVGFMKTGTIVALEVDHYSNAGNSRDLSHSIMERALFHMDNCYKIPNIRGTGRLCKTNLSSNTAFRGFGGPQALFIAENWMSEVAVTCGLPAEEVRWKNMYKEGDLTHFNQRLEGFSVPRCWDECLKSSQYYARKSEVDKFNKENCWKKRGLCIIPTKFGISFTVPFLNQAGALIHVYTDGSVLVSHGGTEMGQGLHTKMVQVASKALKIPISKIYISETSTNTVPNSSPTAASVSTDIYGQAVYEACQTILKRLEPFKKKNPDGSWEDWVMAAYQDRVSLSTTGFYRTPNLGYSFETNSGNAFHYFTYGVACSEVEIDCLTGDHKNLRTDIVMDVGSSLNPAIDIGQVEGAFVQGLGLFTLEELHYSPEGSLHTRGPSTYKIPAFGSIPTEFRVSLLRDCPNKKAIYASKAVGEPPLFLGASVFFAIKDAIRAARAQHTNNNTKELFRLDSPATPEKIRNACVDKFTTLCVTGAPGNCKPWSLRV

IC50 [1] [µM] | Structure (SMILES) | inhibition at 100 µg/mL [2] [%]
14 | O=C(/C=C/c1ccc(O)c(O)c1)O[C@@H]1CC(C(=O)O)=C[C@@H](O)[C@H]1O [compound 1, 5-O-caffeoylshikimic acid] | 
 | O=c1c(O)c(-c2ccc(O)c(O)c2)oc2cc(O)cc(O)c12 [compound 3, quercetin] | 82.1
 | C[C@@H]1O[C@@H](O[C@H]2C(=O)c3c(O)cc(O)cc3O[C@@H]2c2ccc(O)c(O)c2)[C@H](O)[C@H](O)[C@H]1O [compound 6, astilbin] | 33.2
